Source: patent EP4620466A1, “TRIMETHOXYSTYRYL DERIVATIVES FOR USE IN THE TREATMENT OF PACLITAXEL-RESISTANT CANCER” (Instituto de Investigación Biomédica de Salamanca De la …, priority 2024, dated 2025)
pIC50: −log10 of the molar value.

Columns and labels:
Format in all cases: cell-based
HeLa cells [1] = assay: Cell proliferation assay (XTT), cytostatic activity; conditions: Homo sapiens, 72-h treatment, XTT cell proliferation kit
Description: […] cells were seeded in 96-well plates and incubated in the presence or the absence of the indicated compounds at concentrations ranging from 10^-5 to 10^-12 M. The cytostatic activity was measured after 72-h treatments using the XTT (sodium 3'-[1-(phenylaminocarbonyl)-3,4-tetrazolium]-bis(4- methoxy-6-nitro)-benzenesulfonic acid hydrate) cell proliferation kit (Roche Molecular Biochemicals; Mannheim, Germany) following the manufacturer's specifications. Each condition was seeded in triplicate, and experiments were repeated three times to calculate IC values by non-linear regression fitting the data.

HeLa cells [2] = assay: Cell proliferation assay with and without verapamil (MDR transporter check)
CAL33 RPTX = assay: MTT cell viability assay in paclitaxel-resistant cell line; conditions: for sensitivity of paclitaxel-resistant cells (cell viability): CAL33 RPTX compared with parental CAL33, 24, 48 and 72 hours of exposure, six doses (Figures 1 and 2)
Description: • Figure 1. Comparison of the effect on cell viability in the parental and paclitaxel-resistant CAL33 cell lines after 24, 48 and 72 hours of exposure to six different doses of paclitaxel. X axis, time (hours). Y axis, cell viability (%). • Figure 2. Comparison of the effect on cell viability in the parental and paclitaxel-resistant CAL33 cell lines after 24, 48 and 72 hours of exposure to six different doses of Compound 39. X axis, Compund 39 (nM). Y axis, cell viability (%). *p-value < 0.05. **p-value < 0.01. ***p-value < 0.001.
In order to characterise resistance to taxanes in HNSCC, a paclitaxel-resistant cell line was generated from the CAL33 cell line, derived from tongue carcinoma, following the method of progressively increasing the dose of cytotoxic agent on the cells in culture. The generation of a stable paclitaxel-resistant cell line was confirmed by an MTT cell viability assay, named CAL33 RPTX (Figure 1).
In order to search for an alternative treatment with a similar but effective cellular effect on paclitaxel-resistant HNSCC cells, a cell viability assay was performed to test the response to Compound 39 of the CAL33 and CAL33 RPTX cell lines.

[3] = Homo sapiens, without verapamil (control), compounds for 72 h, read-out: potency in the absence of verapamil
[4] = read-out: potency in the presence of 10 µM verapamil, incubated with 10 µM verapamil for 2 h, then compounds for 72 h

Row | Structure (SMILES) | pIC50 (HeLa cells [1]) | pIC50 (HeLa cells [2]; [3]) | pIC50 (HeLa cells [2]; [4]) | sensitivity of paclitaxel-resistant cells (cell viability) (CAL33 RPTX) | effect on cell proliferation (HeLa cells [2]; verapamil alone at the working concentrations (1 and 10 µM)) | effect on tumour cell viability (CAL33 RPTX; at very low doses, CAL33 and CAL33 RPTX cell lines (Figure 2))
1 | COc1cc(NS(=O)(=O)c2ccc3c(ccn3C)c2)cc(OC)c1OC [Compound 44, 1-Methyl-N-(3,4,5-trimethoxyphenyl)-1H-indole-5-sulfonamide] | 7.97 | 7.97 | 8.08 |  |  | 
2 | COc1cc(NS(=O)(=O)c2ccc3c(c2)c(C#N)cn3C)cc(OC)c1OC [Compound 50, 3-Cyano-1-methyl-N-(3,4,5-trimethoxyphenyl)-1H-indole-5-sulfonamide] | 7.68 | 7.67 | 7.59 |  |  | 
3 | COc1cc(OC)cc(N(C)S(=O)(=O)c2ccc3c(ccn3C)c2)c1 [Compound 47, N-(3,5-dimethoxyphenyl)-N,1-dimethyl-1H-indole-5-sulfonamide] | 7.70 | 6.26 | 6.19 |  |  | 
4 | CC(=O)O[C@H]1C(=O)[C@@]2(C)[C@H]([C@H](OC(=O)c3ccccc3)[C@]3(O)C[C@H](OC(=O)[C@H](O)[C@@H](NC(=O)c4ccccc4)c4ccccc4)C(C)=C1C3(C)C)[C@]1(OC(C)=O)CO[C@@H]1C[C@@H]2O [paclitaxel] |  |  |  | resistant |  | 
5 | COc1cc(N(C)S(=O)(=O)c2ccc3c(ccn3C)c2)cc(OC)c1OC [Compound 46, N,1-dimethyl-N-(3,4,5-trimethoxyphenyl)-1H-indole-5-sulfonamide] | 8.62 | 8.62 | 8.72 |  |  | 
6 | COc1cc(NS(=O)(=O)c2ccc3c(c2)c(C=O)cn3C)cc(OC)c1OC [Compound 48, 3-Formyl-1-methyl-N-(3,4,5-trimethoxyphenyl)-1H-indole-5-sulfonamide] | 6.69 | 6.69 | 6.54 |  |  | 
7 | COc1cc(NS(=O)(=O)c2ccc3c(ccn3C)c2)cc(OC)c1 [Compound 45, N-(3,5-dimethoxyphenyl)-1-methyl-1H-indole-5-sulfonamide] | 5.85 | < 6.00 | < 6.00 |  |  | 
8 | COc1cc(N(C)S(=O)(=O)c2ccc3c(c2)c(C#N)cn3C)cc(OC)c1OC [Compound 51, 3-Cyano-N,1-dimethyl-N-(3,4,5-trimethoxyphenyl)-1H-indole-5-sulfonamide] | 7.91 | 7.91 | 7.97 |  |  | 
9 | COc1cc(OC)cc(N(C)S(=O)(=O)c2ccc3c(c2)c(C=O)cn3C)c1 [Compound 52, N-(3,5-dimethoxyphenyl)-3-formyl-N,1-dimethyl-1H-indole-5-sulfonamide] | < 6.00 | < 6.00 | < 6.00 |  |  | 
10 | COc1ccc(CCN(C)CCCC(C#N)(c2ccc(OC)c(OC)c2)C(C)C)cc1OC (centres unmarked) [Verapamil, verapamil, reference compound] |  |  |  |  | no effect | 
11 | COc1cc(/C=C\c2ccc3c(c2)c(C(N)=O)cn3C)cc(OC)c1OC [Compound 39, (Z)-1-Methyl-5-(3,4,5-trimethoxystyryl)-1H-indole-3-carboxamide] | 5.92 |  |  | maintain sensitivity |  | pronounced effect
12 | COc1cc(N(C)S(=O)(=O)c2ccc3c(c2)c(C=O)cn3C)cc(OC)c1OC [Compound 49, 3-Formyl-N,1-dimethyl-N-(3,4,5-trimethoxyphenyl)-1H-indole-5-sulfonamide] | 7.39 | 7.39 | 7.35 |  |  | 
13 | COc1cc(OC)cc(N(C)S(=O)(=O)c2ccc3c(c2)c(C#N)cn3C)c1 [Compound 53, 3-cyano-N-(3,5-dimethoxyphenyl)-N,1-dimethyl-1H-indole-5-sulfonamide] | < 6.00 | 6.26 | 6.19 |  |  | 
